Patent US10759814B2, “Pharmaceutical compositions containing substituted polycyclic pyridone derivatives and prodrug thereof” (priority 2016, dated 2020)
Where two headings read alike, the source gives them in different places.

Experiments:
influenza virus = type: in vivo, human; conditions: 20 to <65 years old
[1] = type: in vivo, human; conditions: Compound II-6 single 40 or 80 mg; Oseltamivir 75 mg twice a day for 5 days
From the text: (4) Incidence of side effects
(4) Incidence of Side Effects
The number of side-effect episodes and the number of patients with side effect were counted for each administration group.

[2] = Metabolism stability test; type: in vitro ADME, human; conditions: 2 μmol/L of test compound; 37° C., 30 minutes
Description: Test Example 5: Metabolism Stability Test
A reaction was performed (oxidative reaction) at 37° C. for 0 minute or 30 minutes in the presence of 1 mmol/L NADPH in 0.2 mL of a buffer (50 mmol/L Tris-HCl pH 7.4, 150 mmol/L potassium chloride, 10 mmol/L magnesium chloride) containing 0.5 mg protein/mL of human liver microsomes. After the reaction, 50 μL of the reaction solution was added to 100 μL of a methanol/acetonitrile=1/1 (v/v), mixed and centrifuged at 3000 rpm for 15 minutes. The compound used in the present invention in the supernatant was quantified by LC/MS/MS or Solid Phase Extraction (SPE)/MS, and a remaining amount of the compound used in the present invention after the reaction was calculated, letting a compound amount at 0 minute reaction time to be 100%. Hydrolysis reaction was performed in the absence of NADPH and glucuronidation reaction was in the presence of 5 mM UDP-glucuronic acid in place of NADPH, followed by similar operations.

red blood cells = assay: Light hemolysis test; type: cell-based, sheep; conditions: UV-irradiation 290 to 400 nm; 0.0008 to 0.1 w/v %
Description: Test Example 12: Light Hemolysis Test
The compound used in the present invention was dissolved at target concentrations and was mixed with a 2.5 v/v % suspension of red blood cells prepared from a defibrinated blood of sheep on a microplate at concentrations of 0.0008 to 0.1 w/v %. The mixtures were exposed to […] of UV-irradiation within a range of wavelength 290 to 400 nm, UVA and UVB using ultra violet fluorescent lamps, GL20SE and FL20S-BLB lamps manufactured by Sankyo Denki Co., Ltd. and Panasonic Corporation, respectively. After the completion of the irradiation, the mixtures were centrifuged, and a supernatant of the mixture was collected and was located on a microplate. The phototoxicity was assessed by measuring an absorbance at wavelength of 540 nm and 630 nm in the supernatant. The absorbance data at wavelength of 540 nm and 630 nm were used as indicators of biomembrane damage (photohemolysis %) and hyperoxidation of lipid membrane (methemoglobin formation), respectively. The criteria of phototoxicity was as follows; It was judged to be non-phototoxic (−) when the photohemolysis %<10 and the maximal change in the absorbance at 630 nm (ΔOD)<0.05 were observed. It was judged to be […] when the photohemolysis was more than 10% and the maximal change in the absorbance at 630 nm (ΔOD) was more than 0.05.

Compound | Amount of change in virus titer from baseline, mean (influenza virus; Day 2 (24 hours later)) | Proportion of patients having a positive influenza virus titer (influenza virus; Day 2 (24 hours later)) [%] | Amount of change in virus titer from baseline, mean (influenza virus; Day 3 (48 hours later)) | Proportion of patients having a positive influenza virus titer (influenza virus; Day 3 (48 hours later)) [%] | Amount of change in virus titer from baseline, mean (influenza virus; Day 4 (72 hours later)) | Proportion of patients having a positive influenza virus titer (influenza virus; Day 4 (72 hours later)) [%] | Amount of change in virus titer from baseline, mean (influenza virus; Day 5 (96 hours later)) | Proportion of patients having a positive influenza virus titer (influenza virus; Day 5 (96 hours later)) [%] | Amount of change in virus titer from baseline, mean (influenza virus; Day 6 (120 hours later)) | Proportion of patients having a positive influenza virus titer (influenza virus; Day 6 (120 hours later)) [%] | Amount of change in virus titer from baseline, mean (influenza virus; Day 9 (192 hours later)) | Proportion of patients having a positive influenza virus titer (influenza virus; Day 9 (192 hours later)) [%] | Incidence of adverse events the causal relationship of which cannot be denied (patients) [1] [%] | remaining rate after reaction with human liver microsomes (printed: % inhibition) [2] [%] | phototoxicity (red blood cells)
CCOC(=O)C1=C[C@@H](OC(CC)CC)[C@H](NC(C)=O)[C@@H](N)C1 [Oseltamivir, reference compound] | −2.51 log10 [TCID50/mL] | 91.0 | −4.20 log10 [TCID50/mL] | 57.3 | −4.63 log10 [TCID50/mL] | 27.6 | −4.98 log10 [TCID50/mL] | 20.9 | −4.85 log10 [TCID50/mL] | 9.0 | −5.22 log10 [TCID50/mL] | 3.2 | 8.4 |  | 
O=C1c2c(O)c(=O)ccn2N([C@@H]2c3ccccc3SCc3c2ccc(F)c3F)[C@@H]2COCCN12 [III-2] |  |  |  |  |  |  |  |  |  |  |  |  |  | 90.1 | (−) (It was judged to be non-phototoxic (−) when the photohemolysis %<10 and the maximal change in the absorbance at 630 nm (ΔOD)<0.05 were observed)
